Like-named read-outs stand apart in the source and are kept apart here.
Experiment: Single ascending dose and food-effect pharmacokinetics of naringin tablets in healthy humans
Format: in vivo, human
Details: for half-life / effect of a high-fat diet on t1/2, Tmax, Cmax and AUC / Tmax / AUC(0-inf) / AUC(0-t) / Cmax / MRT last / MRT inf / CL: human; for half-life / Tmax / AUC(0-inf) / AUC(0-t) / Cmax / MRT last / MRT inf: plasma; for effect of a high-fat diet on t1/2, Tmax, Cmax and AUC: food-effect trial, naringin 160 mg p.o.; for MRT last: read-out: MRT0-t; for MRT inf: read-out: MRT0-∞
Excerpt: Participants were healthy males and females, 18 to 40 years old, ≥50 kg weight, 19 to 25 kg m^2 body mass index. The health condition of participants was considered good based on the screened medical history, physical examination, vital signs, electrocardiogram, and laboratory examination. […] Clinical laboratory test results (sodium, potassium, total protein, white blood and red blood cell counts, hematocrit, hemoglobin, platelet count, aspartate aminotransferase, alanine aminotransferase, gamma-glutamyl transferase, blood urea nitrogen, creatinine, total bilirubin, alkaline phosphatase, creatine kinase, lactate dehydrogenase, calcium, chloride, phosphorus, albumin, globulin, cholesterol, triglycerides, glucose, uric acid, and urinalysis) had to be within normal ranges, without other clinically significant abnormalities. During the study duration, participants were required to use barrier contraception with spermicide during sexual intercourse. During the trial, female participants were in the nonmenstrual, nonpregnant, and nonlactation periods, and they were nonsmokers. Participants were not planning a pregnancy within 6 months of the clinical trials, they communicated with the investigator, understood and complied with the study requirements, and signed informed consent.
Using the Statistical Analysis System (SAS) software (Version 9.4, SAS Institute Inc., Cary, NC, USA), subject randomization and blinding/masking were performed by statisticians from the Department of Health Statistics at the Second Military Medical University.
All blood samples were transferred into heparin-treated centrifuge tubes and centrifuged for 10 min at 4,000 rpm and 4°C. All human urine samples were mixed and transferred (4 ml) into storage tubes. All biological samples were stored at −80°C.
The optimal volume and activity in unit volume of enzyme solution [0.2 M acetic acid/water solution: 0.2 M ammonium acetate/water solution, 15:35 (v/v)] were determined through a pretest of the enzyme (rat plasma, 10 μl, 10 U μl^-1; dog plasma, 10 μl, 10 U μl^-1; human plasma, 20 μl, 20 U μl^-1; human urine, 10 μl, 10 U μl^-1). […] To each fecal sample, 9-fold methanol-normal saline (2:1, v/v) was added, mixed (18,000 rpm, 15 min) by vortexing and centrifuged (10 min, 9,000 rpm, 4°C). […] Then, all plasma, urine, and fecal samples were extracted with ethyl acetate (rat plasma, 800 μl; dog plasma, 1,000 μl; human plasma, 3,000 μl; human urine, 3,000 μl; human feces, 3,000 μl) for at least 3 min by vortexing, centrifuged for 10 min at 3,900 rpm and 4°C; supernatants were transferred into centrifuge tubes and dried with N2. The solid material was dissolved with acetonitrile-water (1:1, v/v) and injected into the ultra high-performance liquid chromatography coupled with triple quadrupole mass spectrometry (UHPLC/MS/MS) system as described below.
The analysis of nonclinical and clinical samples was performed with a UHPLC/MS/MS system that consisted of a Shimadzu Nexera X2 ultra high-performance liquid chromatography (UHPLC) (Shimadzu Corp., Kyoto, Japan) coupled with an AB Sciex API4000 triple-quadrupole mass spectrometry (MS/MS) system (AB Sciex, Foster City, CA, USA) equipped with an electrospray ionization source and controlled by Analyst (v. 1.6.2) software. […] The mobile phase consisted of 0.1% formic acid (v/v) in water (A) and 0.1% formic acid in acetonitrile (B) using a linear gradient of 90% A (0–0.5 min), 90 to 60% A (0.5–1.5 min), 60% to 40% A (1.5–3.5 min), 40% to 10% A (3.5–4.5 min), 10% A (4.5–5.5 min), 10% to 90% A (5.5–6.0 min), and 90% A (6.0–7.5 min) for plasma; and 80% A (0–0.2 min), 80 to 64% A (0.2–2.0 min), 64% to 63% A (2.0–4.4 min), 63% to 0% A (4.4–4.5 min), 0% A (4.5–5.5 min), 0% to 90% A (5.5–5.6 min), 90% A (5.6–5.9 min), 90% to 35% A (5.9–6.0 min), 35% A (6.0–6.2 min), 35 to 80% A (6.2–6.3 min), and 80% A (6.3–7.5 min) for urine and feces.

[1] = both sexes, oral, naringin in humans, clinical studies overall
[2] = both sexes, po, 40 mg, naringin 40 mg p.o. single dose
[3] = both sexes, po, 80 mg, naringin 80 mg p.o. single dose
[4] = both sexes, po, 160 mg, naringin 160 mg (high-fat diet) p.o. single dose
[5] = both sexes, po, 160 mg, naringin 160 mg p.o. single dose
[6] = both sexes, po, 320 mg, naringin 320 mg p.o. single dose
[7] = both sexes, po, 480 mg, naringin 480 mg p.o. single dose
[8] = female, po, 40 mg, naringin 40 mg p.o. single dose
[9] = female, po, 80 mg, naringin 80 mg p.o. single dose
[10] = female, po, 160 mg, naringin 160 mg p.o. single dose
[11] = female, po, 160 mg, naringin 160 mg p.o. single dose, high-fat diet group, female
[12] = male, po, 40 mg, naringin 40 mg p.o. single dose
[13] = male, po, 80 mg, naringin 80 mg p.o. single dose
[14] = male, po, 160 mg, naringin 160 mg p.o. single dose
[15] = male, po, 160 mg, naringin 160 mg p.o. single dose, high-fat diet group, male

In the case of O=C1C[C@@H](c2ccc(O)cc2)Oc2cc(O)cc(O)c21 [naringenin, Naringenin], the half-life (both sexes, oral, naringenin in humans, studies overall) is reported as 2.6 ± 1.89 h, the “effect of a high-fat diet on t1/2, Tmax, Cmax and AUC” value is reported as “insignificantly altered” and the lag-time in plasma (human plasma, after p.o. naringin) is reported as 5.74 ± 2.38 h. The “time for concentrations to increase to Cmax after the lag-time” value (humans, after p.o. naringin) was “about 3.62 ± 3.19 h”.

Molecule C[C@@H]1O[C@@H](O[C@H]2[C@H](Oc3cc(O)c4c(c3)O[C@H](c3ccc(O)cc3)CC4=O)O[C@H](CO)[C@@H](O)[C@@H]2O)[C@H](O)[C@H](O)[C@H]1O [naringin, Naringin] has a Tmax [1] of 2.09 ± 1.15 h, a half-life [1] of 2.69 ± 1.77 h and an AUC(0-inf) [2] of 9.99 ± 4.22 ng·h/mL. For the same molecule, the AUC(0-t) [2] was 7.61 ± 3.5 ng·h/mL, the Cmax [2] was 2.24 ± 0.67 ng/mL and the Tmax [2] was 1.97 ± 1.11 h. For the same molecule, the half-life [2] was 2.48 ± 1.64 h, the MRT last [2] was 2.66 ± 0.443 h and the MRT inf [2] was 4.9 ± 1.69 h. It also gave an AUC(0-inf) [3] of 12.2 ± 3.19 ng·h/mL, an AUC(0-t) [3] of 9.27 ± 3.37 ng·h/mL and a Cmax [3] of 2.94 ± 1.17 ng/mL. It also gave a Tmax [3] of 2.09 ± 1.39 h, a half-life [3] of 1.9 ± 1.22 h and an MRT last [3] of 2.8 ± 0.543 h. The MRT inf [3] was 3.83 ± 1.69 h, the AUC(0-inf) [4] was 18.2 ± 5.81 ng·h/mL and the AUC(0-t) [4] was 12.8 ± 4.74 ng·h/mL. For the same molecule, the Cmax [4] was 3.04 ± 1.15 ng/mL, the Tmax [4] was 2.66 ± 1.87 h and the half-life [4] was 3.11 ± 1.95 h. The MRT last [4] was 3.45 ± 1.22 h, the MRT inf [4] was 6.19 ± 2.77 h and the AUC(0-inf) [5] was 22.4 ± 9.36 ng·h/mL. The AUC(0-t) [5] was 15.7 ± 7.51 ng·h/mL, the Cmax [5] was 4.29 ± 2.63 ng/mL and the Tmax [5] was 2.5 ± 1.41 h. The half-life [5] was 3.64 ± 3.01 h, the MRT last [5] was 3.3 ± 1.12 h and the MRT inf [5] was 6.54 ± 4.41 h. The AUC(0-inf) [6] was 39.8 ± 32.2 ng·h/mL, the AUC(0-t) [6] was 37.5 ± 32.2 ng·h/mL and the Cmax [6] was 10.9 ± 12.4 ng/mL. For the same molecule, the Tmax [6] was 1.66 ± 0.99 h, the half-life [6] was 2.51 ± 1.58 h and the MRT last [6] was 3.17 ± 0.677 h. The MRT inf [6] was 4.01 ± 1.05 h, the AUC(0-inf) [7] was 21.2 ± 7.95 ng·h/mL and the AUC(0-t) [7] was 19.4 ± 7.86 ng·h/mL. For the same molecule, the Cmax [7] was 5.69 ± 2.8 ng/mL, the Tmax [7] was 1.66 ± 0.834 h and the half-life [7] was 2.01 ± 0.498 h. For the same molecule, the MRT last [7] was 3.08 ± 0.704 h, the MRT inf [7] was 3.86 ± 0.779 h and the AUC(0-inf) [8] was 5.83 ± 0.737 ng·h/mL. It also gave an AUC(0-t) [8] of 4.64 ± 1.01 ng·h/mL, a Cmax [8] of 1.92 ± 0.516 ng/mL and a Tmax [8] of 2.67 ± 1.53 h. For the same molecule, the half-life [8] was 1.49 ± 0.849 h, the AUC(0-inf) [9] was 11.5 ± 2.69 ng·h/mL and the AUC(0-t) [9] was 10.2 ± 2.28 ng·h/mL. For the same molecule, the Cmax [9] was 3.3 ± 0.916 ng/mL, the Tmax [9] was 1.44 ± 0.657 h and the half-life [9] was 1.48 ± 0.448 h. The AUC(0-inf) [10] was 25.9 ± 8.47 ng·h/mL, the AUC(0-t) [10] was 17.8 ± 5.04 ng·h/mL and the Cmax [10] was 3.44 ± 1.08 ng/mL. It also gave a Tmax [10] of 3.25 ± 1.71 h, a half-life [10] of 4.57 ± 3.65 h and an AUC(0-inf) [11] of 20.9 ± 4.78 ng·h/mL. For the same molecule, the AUC(0-t) [11] was 16.1 ± 3.27 ng·h/mL, the Cmax [11] was 3.78 ± 1.26 ng/mL and the Tmax [11] was 2.88 ± 2.02 h. The half-life [11] was 2.54 ± 1.96 h, the “effect of a high-fat diet on t1/2, Tmax, Cmax and AUC” value was “insignificantly altered” and the AUC(0-inf) [12] was 12.5 ± 3.18 ng·h/mL. It also gave an AUC(0-t) [12] of 9.39 ± 3.23 ng·h/mL, a Cmax [12] of 2.43 ± 0.727 ng/mL and a Tmax [12] of 1.55 ± 0.622 h. For the same molecule, the half-life [12] was 3.07 ± 1.78 h, the AUC(0-inf) [13] was 13.2 ± 4.16 ng·h/mL and the AUC(0-t) [13] was 8.35 ± 4.36 ng·h/mL. The Cmax [13] was 2.58 ± 1.43 ng/mL, the Tmax [13] was 2.75 ± 1.71 h and the half-life [13] was 2.46 ± 1.83 h. For the same molecule, the AUC(0-inf) [14] was 17.7 ± 9.93 ng·h/mL, the AUC(0-t) [14] was 13.7 ± 9.73 ng·h/mL and the Cmax [14] was 5.14 ± 3.6 ng/mL. It also gave a Tmax [14] of 1.75 ± 0.5 h, a half-life [14] of 2.41 ± 1.79 h and an AUC(0-inf) [15] of 14.7 ± 5.83 ng·h/mL. The AUC(0-t) [15] was 9.56 ± 3.57 ng·h/mL, the Cmax [15] was 2.3 ± 0.201 ng/mL and the Tmax [15] was 2.44 ± 1.98 h. The half-life [15] was 3.86 ± 2.02 h, the CL (naringin 40 mg p.o. single dose) was 1120 ± 605 mL/min/kg and the CL (naringin 80 mg p.o. single dose) was 1720 ± 832 mL/min/kg. It also gave a CL (naringin 160 mg (high-fat diet) p.o. single dose) of 2870 ± 1070 mL/min/kg, a CL (naringin 160 mg p.o. single dose) of 2400 ± 1030 mL/min/kg and a CL (naringin 320 mg p.o. single dose) of 3370 ± 2180 mL/min/kg. For the same molecule, the CL (naringin 480 mg p.o. single dose) was 7950 ± 6200 mL/min/kg.

Source: PMC7118210 (Frontiers in Pharmacology, 2020)
